Experimental findings from patent US6451803B1, “N-acyl and n-aroyl aralkyl amides useful in treating seritonergic disorders” (Pfizer INC, priority 1998, dated 2002) are described below.

A word on the melting point: it is the temperature of the solid-liquid transition.

For the molecule `CN1CCN(c2ccccc2CCNC(=O)c2ccc(Cl)c(Cl)c2)CC1.Cl.O` (hydrate or solvate), the melting point lay within 110 to 120 °C.
